The target of one series is T1, HCMV polymerase (Human cytomegalovirus, UniProt P08546).
T1 construct: made in house; host or cells: SF-9 insect cells infected with recombinant baculovirus
Kind of series: HCMV polymerase assay (scintillation proximity assay), original and modified version. It is filed as biochemical. To be noted: SPA; several values per example = repeat determinations, assay version not given; read-out: CMV Polymerase IC50. The procedure:
The HCMV polymerase assay is performed using a scintillation proximity assay (SPA) as described in several references, such as N.D. Cook, et al., Pharmaceutical Manufacturing International, pages 49-53 (1992); K. Takeuchi, Laboratory Practice, September issue (1992); U.S. Pat. No. 4,568,649 (1986); which are incorporated by reference herein. Reactions are performed in 96-well plates. The assay is conducted in 100 μl volume with 5.4 mM HEPES (pH 7.5), 11.7 MM KCl, 4.5 mM MgCl2, 0.36 mg/ml BSA, and 90 nM ^3H-dTTP. Assays are run with and without CHAPS, (3-[(3-Cholamidopropyl)-dimethylammoniol-1-propane-sulfonate) at a final concentration of 2 mM. HCMV polymerase is diluted in enzyme dilution buffer containing 50% glycerol, 250 mM NaCl, 10 mM HEPES (pH 7.5), 100 μg/ml BSA, and 0.01% sodium azide. The HCMV polymerase, which is expressed in recombinant baculovirus-infected SF-9 cells and purified according to literature procedures, is added at 10% (or 10 μl) of the final reaction volume, i.e., 100 μl. Compounds are diluted in 50% DMSO and 10 μl are added to each well. Control wells contain an equivalent concentration of DMSO. Unless noted otherwise, reactions are initiated via the addition of 6 nM biotinylated poly(dA)-oligo(dT) template/primer to reaction mixtures containing the enzyme, substrate, and compounds of interest. Plates are incubated in a 25° C. or 37° C. H2O bath and terminated via the addition of 40 μl/reaction of 0.5 M EDTA (pH 8) per well. Reactions are terminated within the time-frame during which substrate incorporation is linear and varied depending upon the enzyme and conditions used, i.e., 30 min. for HCMV polymerase. Ten (10) μl of streptavidin-SPA beads (20 mg/ml in PBS/10% glycerol) are added following termination of the reaction. Plates are incubated 10 min. at 37° C., then equilibrated to room temperature, and counted on a Packard Topcount. Linear regressions are performed and IC50's are calculated using computer software.
A modified version of the above HCMV polymerase assay is performed as described above, but with the following changes: Compounds are diluted in 100% DMSO until final dilution into assay buffer. In the previous assay, compounds are diluted in 50% DMSO. 4.5 mM dithiotherotol (DTT) is added to the polymerase buffer.
In general terms: In a scintillation proximity assay essentially only radioactivity close to the scintillant gives light.

Molecules are shown by their SMILES.

T1 sequence (P08546 whole entry): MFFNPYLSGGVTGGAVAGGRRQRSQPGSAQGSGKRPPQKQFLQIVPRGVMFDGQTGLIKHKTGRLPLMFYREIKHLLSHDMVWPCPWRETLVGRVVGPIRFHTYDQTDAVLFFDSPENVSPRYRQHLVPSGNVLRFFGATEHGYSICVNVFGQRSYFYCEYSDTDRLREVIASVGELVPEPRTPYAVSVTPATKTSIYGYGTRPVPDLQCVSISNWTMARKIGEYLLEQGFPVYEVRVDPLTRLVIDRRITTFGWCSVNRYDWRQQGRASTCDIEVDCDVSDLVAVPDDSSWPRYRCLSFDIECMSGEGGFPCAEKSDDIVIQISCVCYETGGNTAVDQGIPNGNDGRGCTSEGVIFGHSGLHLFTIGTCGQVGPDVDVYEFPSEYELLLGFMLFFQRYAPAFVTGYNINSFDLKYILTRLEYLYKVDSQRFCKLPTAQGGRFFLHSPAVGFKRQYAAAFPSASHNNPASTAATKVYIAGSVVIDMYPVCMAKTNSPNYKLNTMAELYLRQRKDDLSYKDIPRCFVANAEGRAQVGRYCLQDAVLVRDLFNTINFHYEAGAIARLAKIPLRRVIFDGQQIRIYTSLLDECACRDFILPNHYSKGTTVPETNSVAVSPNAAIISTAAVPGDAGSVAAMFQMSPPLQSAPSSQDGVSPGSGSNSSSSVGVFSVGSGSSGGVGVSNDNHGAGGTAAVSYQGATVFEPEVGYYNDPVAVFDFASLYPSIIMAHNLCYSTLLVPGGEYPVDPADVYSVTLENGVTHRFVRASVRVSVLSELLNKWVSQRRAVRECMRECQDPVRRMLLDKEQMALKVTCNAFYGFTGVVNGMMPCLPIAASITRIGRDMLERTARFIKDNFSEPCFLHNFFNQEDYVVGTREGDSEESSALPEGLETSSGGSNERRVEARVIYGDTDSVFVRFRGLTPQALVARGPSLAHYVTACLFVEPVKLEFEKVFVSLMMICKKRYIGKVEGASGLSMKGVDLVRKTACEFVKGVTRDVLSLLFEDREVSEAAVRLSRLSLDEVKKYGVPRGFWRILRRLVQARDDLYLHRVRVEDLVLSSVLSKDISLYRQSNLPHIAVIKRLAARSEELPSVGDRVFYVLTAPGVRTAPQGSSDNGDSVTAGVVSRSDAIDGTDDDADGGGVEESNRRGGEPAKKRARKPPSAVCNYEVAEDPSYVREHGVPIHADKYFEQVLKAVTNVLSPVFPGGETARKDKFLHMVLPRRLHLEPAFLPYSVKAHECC

In general, melting point refers to the temperature of the solid-liquid transition. The term IC50 denotes the point on the concentration scale where inhibition reaches its midpoint. `CN(Cc1cc2c3c(c1)c(=O)c(C(=O)NCc1ccc(F)cc1)cn3CC(=O)N2C)C[C@@H](O)c1cccnc1` [Example 25] showed a melting point of 108 to 110 °C. Further, on HCMV polymerase, the half-maximal inhibitory concentration (IC50) worked out at 930 nM.

For `CN(Cc1cc2c3c(c1)c(=O)c(C(=O)NCc1ccc(F)cc1)cn3CC(=O)N2C)C[C@@H](O)c1cccs1` [Example 32, N-(4-fluorobenzyl)-9-{[[(2R)-2-hydroxy-2-thien-2-ylethyl](methyl)amino]methyl}-1-methyl-2,7-dioxo-2,3-dihydro-1H,7H-pyrido[1,2,3-de]quinoxaline-6-carboxamide], the melting point is 113 to 115 °C. Moreover, the IC50 at HCMV polymerase was found to be 580 nM.

Take `CN(Cc1cc2c3c(c1)c(=O)c(C(=O)NCc1ccc(Cl)cc1)cn3CC(=O)N2C)C[C@@H](O)c1ccsc1` [Example 14, N-(4-chlorobenzyl)-9-{[[(2S)-2-hydroxy-2-thien-3-ylethyl](methyl)amino]methyl}-1-methyl-2,7-dioxo-2,3-dihydro-1H,7H-pyrido[1,2,3-de]quinoxaline-6-carboxamide]: the melting point fell in the range of 137 to 139 °C. Also, the half-maximal inhibitory concentration (IC50) at HCMV polymerase came out at 190 nM.

Molecule `CN(Cc1cc2c3c(c1)c(=O)c(C(=O)NCc1ccc(Cl)cc1)cn3CC(=O)N2C)CC(O)c1ccc(C#N)s1` (racemic) [Example 20, rac N-(4-chlorobenzyl)-9-{([2-(5-cyanothein-2-yl)-2-hydroxyethyl](methyl)amino)methyl}-1-methyl-2,7-dioxo-2,3-dihydro-1H,7H-pyrido[1,2,3-de]quinoxaline-6-carboxamide] returned a melting point of 122 to 126 °C. Also, the concentration for half-maximal inhibition (IC50) at HCMV polymerase was 410 nM.

With `COc1cccc(C(O)CN(C)Cc2cc3c4c(c2)c(=O)c(C(=O)NCc2ccc(Cl)cc2)cn4CC(=O)N3C)c1` (racemic) [Example 18, rac N-(4-chlorobenzyl)-9-{([2-hydroxy-2-(3-methoxyphenyl)ethyl](methyl)amino)methyl}-1-methyl-2,7-dioxo-2,3-dihydro-1H,7H-pyrido[1,2,3-de]quinoxaline-6-carboxamide], the melting point lay within 154 to 156 °C. Besides, at HCMV polymerase, the IC50 was 180 nM.

Molecule `COc1cc(C(O)CN(C)Cc2cc3c4c(c2)c(=O)c(C(=O)NCc2ccc(Cl)cc2)cn4CC(=O)N3C)ccc1O` (racemic) [Example 10, rac N-(4-chlorobenzyl)-9-{([2-hydroxy-2-(4-hydroxy-3-methoxyphenyl)ethyl](methyl)amino)methyl}-1-methyl-2,7-dioxo-2,3-dihydro-1H,7H-pyrido[1,2,3-de]quinoxaline-6-carboxamide] came in with a melting point of 133 to 136 °C. For the same molecule, the concentration for half-maximal inhibition (IC50) at HCMV polymerase was 240 nM.

`CN(Cc1cc2c3c(c1)c(=O)c(C(=O)NCc1ccc(Cl)cc1)cn3CC(=O)N2CCO)CC(O)c1cc2ccccc2o1` (racemic) [Example 26, rac 9-{([2-(1-benzofuran-2-yl)-2-hydroxyethyl](methyl)amino)methyl}-N-(4-chlorobenzyl)-1-(2-hydroxyethyl)-2,7-dioxo-2,3-dihydro-1H,7H-pyrido[1,2,3-de]quinoxaline-6-carboxamide] returned a melting point of 195 to 197 °C. Besides, the IC50 on HCMV polymerase was determined as 880 nM.

For `CN(Cc1cc2c3c(c1)c(=O)c(C(=O)NCc1ccc(Cl)cc1)cn3CC(=O)N2C)CC(O)c1ncccn1` (racemic) [Example 19, rac N-(4-chlorobenzyl)-9-{([2-hydroxy-2-pyrimidin-2-ylethyl](methyl)amino)methyl}-1-methyl-2,7-dioxo-2,3-dihydro-1H,7H-pyrido [1,2,3-de]quinoxaline-6-carboxamide], the melting point fell in the range of 168 to 170 °C. The half-inhibitory concentration (IC50) at HCMV polymerase was 490 nM.

`CN(Cc1cc2c3c(c1)c(=O)c(C(=O)NCc1ccc(Cl)cc1)cn3CC(=O)N2C)CC(O)c1ccco1` (racemic) [Example 5, rac N-(4-chlorobenzyl)-9-{([2-(2-furyl)-2-hydroxyethyl](methyl)amino)methyl}-1-methyl-2,7-dioxo-2,3-dihydro-1H,7H-pyrido[1,2,3-de]quinoxaline-6-carboxamide] returned a melting point of 153 to 155 °C. Further, the half-inhibitory concentration (IC50) at HCMV polymerase came out at 240 nM.

`CN(Cc1cc2c3c(c1)c(=O)c(C(=O)NCc1ccc(F)cc1)cn3CC(=O)N2C)C[C@@H](O)c1cnccn1` [Example 30, N-(4-fluorobenzyl)-9-{[[(2R)-2-hydroxy-2-pyrazin-2-ylethyl](methyl)amino]methyl}-1-methyl-2,7-dioxo-2,3-dihydro-1H,7H-pyrido[1,2,3-de]quinoxaline-6-carboxamide] showed a melting point of 108 to 110 °C. In addition, the IC50 on HCMV polymerase was 1090 nM.

With `CN(Cc1cc2c3c(c1)c(=O)c(C(=O)NCc1ccc(F)cc1)cn3CC(=O)N2C)C[C@@H](O)c1ccccn1` [Example 24, N-(4-fluorobenzyl)-9-{[[(2R)-2-hydroxy-2-pyridin-2-ylethyl](methyl)amino]methyl}-1-methyl-2,7-dioxo-2,3-dihydro-1H,7H-pyrido[1,2,3-de]quinoxaline-6-carboxamide], the melting point fell in the range of 121 to 123 °C. The concentration for half-maximal inhibition (IC50) on HCMV polymerase is 1870 nM.
